From patent US20060122179A1, “Methods and compositions using JNK inhibitors for treatment and management of central nervous system injury” (priority 2004, published 2006)

Key:
[1] = system: rat ventral mesencephalan dopaminergic neurons; test: [3H]Dopamine cell culture assay (6-OHDA neurotoxicity); type: cell-based; details: 6-OHDA 30 μM, uptake 22 hrs after exposure
Method: Cultures of dopaminergic neurons were prepared according to a modification of the procedure described by Raymon and Leslie (J. Neurochem. 62:1015-1024, 1994). Time-mated pregnant rats were sacrificed on embyronic day 14-15 (crown rump length 11-12 mm) and the embryos removed by cesarean section. The ventral mesencephalon, containing the dopaminergic neurons, was dissected from each embryo. Tissue pieces from approximately 48 embryos were pooled and dissociated both enzymatically and mechanically. An aliquot from the resulting cell suspension was counted and the cells were plated in high glucose DMEM/F12 culture medium with 10% fetal bovine serum at a density of 1×10^5 cells/well of a Biocoat poly-D-lysine-coated 96-well plate. The day following plating was considered 1 day in vitro (DIV). Cells were maintained in a stable environment at 37° C., 95% humidity, and 5% CO2. A partial medium change was performed at 3 DIV. […]
[^3H]Dopamine uptake is used as a measure of the health and integrity of dopaminergic neurons in culture (Prochiantz et al., PNAS 76: 5387-5391, 1979). […] Briefly, cells treated with 6-OHDA in the presence and absence of 5-amino-anthra(9,1-cd)isothiazol-6-one were assessed in the uptake assay 22 hrs after exposure to 6-OHDA. […] Radioactivity was removed and the cultures were washed 3× with ice cold PBS. […]

[2] = Brain-blood plasma distribution in vivo; set-up: species or system Sprague-Dawley rats; details: rat, 10 mg/kg intravenously, 2 hr post-dose
Method: 5-Amino-anthra(9,1-cd)isothiazol-6-one was administered intravenously (10 mg/kg) into the veins of Sprague-Dawley rats. After 2 hr, blood samples were obtained from the animals and their vascular systems were perfused with approximately 100 mL of saline to rid their brains of blood. The brains were removed from the animals, weighed, and homogenized in a 50 mL conical tube containing 10 equivalents (w/v) of methanol/saline (1:1) using a Tissue Tearer (Fischer Scientific). The homogenized material was extracted by adding 600 μL of cold methanol to 250 μL of brain homogenate vortexed for 30 sec and subjected to centrifugation for 5 min. After centrifugation, 600 μL of the resulting supernatant was transferred to a clean tube and evaporated at room temperature under reduced pressure to provide a pellet. […] The brain homogenate analysis samples, plasma analysis samples, and standard analysis samples were analyzed and compared using HPLC by injecting 100 μL of a sample onto a 5 μm C-18 Luna column (4.6 mm×150 mm, commercially available from Phenomenex of Torrance, Calif.) and eluting at 1 mL/min with a linear gradient of 30% aqueous acetonitrile containing 0.1% trifluoroacetic acid to 90% aqueous acetonitrile containing 0.1% trifluoroacetic acid over 8 minutes and holding at 90% aqueous acetonitrile containing 0.1% trifluoroacetic acid for 3 min. with absorbance detection at 450 nm. […]

[3] = Solubility in aqueous media (remark); type: physicochemical

Nc1ccc2snc3c2c1C(=O)c1ccccc1-3 [5-amino-anthra(9,1-cd)isothiazol-6-one]
protection of dopaminergic neurons from 6-OHDA ([3H]dopamine uptake) [1]: protects rat ventral mesencephalan neurons from the toxic effects of 6-OHDA
brain-drug concentration [2]: approximately 65 nmole/g
solubility in aqueous media [3]: limited solubility
